Target: T1, Pdia4 (Mus musculus, UniProt P08003)
T1 construct: recombinant Pdia4; Flag-Pdia4 plasmid used in Min6 cells
T1 sequence (P08003 21-638): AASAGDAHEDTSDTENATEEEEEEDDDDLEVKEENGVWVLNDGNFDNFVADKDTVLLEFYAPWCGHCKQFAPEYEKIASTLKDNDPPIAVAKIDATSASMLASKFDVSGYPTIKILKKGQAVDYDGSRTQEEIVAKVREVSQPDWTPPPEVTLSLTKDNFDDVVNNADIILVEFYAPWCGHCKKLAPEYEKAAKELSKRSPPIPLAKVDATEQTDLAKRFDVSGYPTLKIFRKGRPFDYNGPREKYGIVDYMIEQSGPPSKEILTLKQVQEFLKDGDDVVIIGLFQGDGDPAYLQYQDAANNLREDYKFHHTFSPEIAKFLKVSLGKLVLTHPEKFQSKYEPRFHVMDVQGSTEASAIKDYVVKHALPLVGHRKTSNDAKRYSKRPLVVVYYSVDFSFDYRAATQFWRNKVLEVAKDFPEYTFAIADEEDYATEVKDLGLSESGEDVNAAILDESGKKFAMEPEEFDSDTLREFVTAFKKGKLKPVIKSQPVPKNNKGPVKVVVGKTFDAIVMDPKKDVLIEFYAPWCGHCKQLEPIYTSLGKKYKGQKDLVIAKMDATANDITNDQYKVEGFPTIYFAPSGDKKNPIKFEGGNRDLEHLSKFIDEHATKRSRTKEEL
Experiment: insulin reduction turbidity assay, […] nm
Format: biochemical
Details: insulin substrate; 25 °C; 30 min

IC50: 4 µM
Substance: PS1

— PMC10025235, “Pharmacological and mechanistic study of PS1, a Pdia4 inhibitor, in β-cell pathogenesis and diabetes in db/db mice” (Cellular and Molecular Life Sciences: CMLS, 2023)
